Series [1] deals with bacteria-induced sepsis mouse models. To be noted: cited from earlier work. An excerpt: The gene expressions of TLR2 and TLR4 in these patients were also correlated with that of the inflammatory cytokine IL1B (Figure S1C-F). These analyses together with reported literatures indeed confirmed the TLR2 and TLR4 up-regulation as a strong pathogenic factor in sepsis patients. Moreover, studies have shown that TLR4 knockout mice ...

The subject of another series is TLR4/MD-2 complex. Also noted: method as in PMID 35238667. Particulars: cited from earlier work.
For series [2] the following is noted: right after preparation and overnight storage.
The test system of another series is LPS / TLR4. More on the design: method as in 3 sources, ref 25 = [25]; PMID 34183393; doi:10.1073/pnas.2101721118; 25 Schromm AB Paulowski L Kaconis Y Kopp F Koistinen M Donoghue A Cathelicidin and PMB neutralize endotoxins by multifactorial mechanisms including LPS interaction and targeting of host cell membranes ||| ref 18, 19 = [18]; PMID 17237433; doi:10.4049/jimmunol.178.3.1829; 18 Di Nardo A Braff MH Taylor KR Na C Granstein RD McInturff JE Cathelicidin antimicrobial peptides block dendritic cell TLR4 activation and allergic contact sensitization J Immunol 2007 178 1829 34 1 || [19]; PMID 32582207; doi:10.3389/fimmu.2020.01137; 19 Scheenstra MR van Harten RM Veldhuizen EJA Haagsman HP Coorens M Cathelicidins modulate TLR-activation and inflammation Front Immunol 2020 11 1137 32582207 10.3389/fimmu.2020.01137 PMC7296178 ||| ref 44 = [44]; PMID 31364070; doi:10.1007/978-3-030-16373-0_4; 44 Li Z Velkov T Polymyxins: mode of action Adv Exp Med Biol 2019 1145 37 54 31364070 10.1007/978-3-030-16373-0_4. Particulars: cited from earlier work. An excerpt: Bioactive peptides are functional biopolymers that can be de novo designed or derived from nature with immunoregulatory and antimicrobial activities. For example, naturally existed antimicrobial peptides (AMPs) are key players in the host-defense mechanism against the invasion of various pathogens including bacteria, fungi, viruses and parasites, [17], through the disruption of microorganism membranes. This working mechanism makes AMPs more advantageous over traditional antibiotics due to less chance for the development of drug resistance. In addition to elimination of microbes, some AMPs ... || Polymyxin B (PMB), a cationic cyclic peptide, is one of the last-line antibiotics to treat drug-resistant bacterial infection in the clinic. […] To assess the potency of our newly designed R18, we made the head-to-head comparison between R18 and polymyxin B on their TLR4 and TLR2 inhibitory activities.

The test system of series [3] is Gram-positive bacterial infection. To be noted: cited from earlier work. An excerpt: (§1) The fast-increasing cases of sepsis or pneumonia caused by multidrug-resistant Gram-negative bacteria in the clinics have become a global health emergency, [30]. Currently, the peptide-based polymyxin B is the last line of antibiotics to fight multidrug-resistant Gram-negative bacteria. […] Th ...

The conditions of series [4]: cited from earlier work.
Excerpt: as §1

Series [5] deals with TLR4 signaling (LPS-induced NF-κB/AP-1 and IRF activation) in THP-1 reporter cell-derived macrophages. Briefly: NF-κB/AP-1 and IRF reporter assay, LPS (TLR4). In kind it is cell-based, human. How it is done: (§2) Cell culture. THP-1 cells were cultured in the RPMI 1640 complete medium supplemented with 10% FBS, 2 mM L-glutamine, and 1 mM sodium pyruvate, in a cell incubator containing 5% CO2 at 37°C. Zeocin (200 μg/mL or 100 μg/mL) was added to the complete medium as the selection pressure for THP-1-XBlue or THP-1-ISG reporter cells. Cells were seeded into a 96-well plate (1×10^5 cells/well) or a 24-well plate (5×10^5 cells/well), and differentiated into macrophages with PMA (50 ng/mL) for 24 h. […] The culture medium supernatants and cell lysates were collected for further analysis.
(§3) NF-κB/AP-1 and IRF reporter assay. THP-1-XBlue and THP-1-ISG reporter cells were used to assess the activation of NF-κB/AP-1 and IRF, respectively. After treatments, the culture medium (20 μL per well) was collected and mixed with the Quanti-Blue solution (180 μL) in a clean 96-well plate, which was incubated for 1-2 h at 37°C until the solution color turned into dark purple. The solution absorption at 655 nm was acquired on a microplate reader (TECAN, Mannedorf, Zurich, Switzerland).
(In a reporter assay the amount or activity of a reporter protein is the signal.)

Series [6] deals with TLR2 signaling (Pam3CSK4-induced NF-κB/AP-1 activation) in THP-1 reporter cell-derived macrophages. Nature of the series: NF-κB/AP-1 reporter assay, Pam3CSK4 (TLR2). In kind it is cell-based, human. Particulars: 2.5, 5 and 10 μM, Pam3CSK4 10 ng/mL, co-treatment, N = 3. How it is done:
as §2, §3

Where a SMILES comes first, the peptide text is derived from it.

With `CCOC(=O)C1=CCCC[C@H]1S(=O)(=O)Nc1ccc(F)cc1Cl` [TAK-242], in series [1], the “disease severity in sepsis mouse models” value was “successfully reduced the disease severity in bacteria-induced sepsis mouse models”.

Consider papiliocin, for which the “binding to TLR4/MD-2” value in the series with TLR4/MD-2 complex is recorded as “directly bind to the TLR4/MD-2 complex in order to block LPS-TLR4 interactions”.

Turning to `CC(C)C[C@H](NC(=O)[C@H](CC(C)C)NC(=O)[C@H](CCCNC(=N)N)NC(=O)[C@H](Cc1c[nH]c2ccccc12)NC(=O)[C@H](CC(C)C)NC(=O)[C@H](CCCNC(=N)N)NC(=O)[C@H](CCCNC(=N)N)NC(=O)[C@H](Cc1c[nH]c2ccccc12)NC(=O)[C@H](CC(C)C)NC(=O)[C@H](CCCNC(=N)N)NC(=O)[C@H](CC(C)C)NC(=O)[C@H](Cc1c[nH]c2ccccc12)NC(=O)[C@H](CCCNC(=N)N)NC(=O)[C@H](CCCNC(=N)N)NC(=O)[C@H](CC(C)C)NC(=O)[C@H](Cc1c[nH]c2ccccc12)NC(=O)[C@@H](N)CCCNC(=N)N)C(=O)N[C@@H](CCCNC(=N)N)C(N)=O` [R18] (H-RWLRRWLRLWRRLWRLLR-NH2), in series [2], the “stability and dispersibility in PBS” value is “tended to form milky colloidal suspensions and precipitate overnight”.

On to “LL-37: human host-defense peptide cathelicidin”, for which the “modulation of TLR4-triggered responses via LPS binding” value in the series on LPS / TLR4 is on record as “capable of modulating TLR4-triggered inflammatory responses”.

Regarding polymyxin B, in the series on LPS / TLR4, the “TLR4-mediated inflammation inhibition by antagonizing LPS” value is “capable of inhibiting TLR4-mediated inflammatory responses by antagonizing LPS” and the “TLR4 antagonism by LPS neutralization” value was “TLR4 antagonist by neutralizing the bacterial product LPS”. Also, the “effectiveness against Gram-positive bacterial infection and inflammation” value in series [3] was “not effective against Gram-positive bacterial infection and the associated inflammation”. Also, the clinical toxicity result in series [4] was “has neurotoxicity and often causes some serious kidney problems”. Also, in series [5], the “inhibition of LPS-induced NF-κB/AP-1 and IRF activation” value is listed as “able to effectively inhibit LPS-induced activation”. Also, the “inhibition of Pam3CSK4-induced NF-κB/AP-1 activation” value in series [6] is given as “had no effect on TLR2 inhibition”.

(Values after article PMC12439338, “Designer amphiphilic helical peptide-decorated nanomicelles enable simultaneous inflammation control and triple-destruction of bacteria for treating bacterial pneumonia and sepsis” (Theranostics, 2025).)
